# Measurements as given in patent US11987588B2, “Modulators of the beta-3 adrenergic receptor useful for the treatment or prevention of heart failure and disorders related thereto” (Arena Pharmaceuticals, Inc., priority 2017, dated 2024).
# Target: Beta-3 Adrenergic Receptor (Homo sapiens (Human), UniProt P13945)
# Test: Homogeneous Time-Resolved Fluorescence (HTRF) cAMP antagonist assay, IC50 determination
# Assay type: cell-based
# Conditions: CHO-K1 cells stably expressing recombinant receptor, isoproterenol at EC90
# Outline: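 CHO-K1 cells stably expressing receptor, 1500 cells/well, preincubated briefly with 10-point 5-fold compound series (top final typically 10 or 100 μM) in PBS with 1 mM IBMX, then challenged with isoproterenol at EC90 for 1 h at room temperature. cAMP read by HTRF against on-plate standard curve; IC50 from dose-response.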
# Chain of Beta-3 Adrenergic Receptor (P13945 whole entry, species assumed): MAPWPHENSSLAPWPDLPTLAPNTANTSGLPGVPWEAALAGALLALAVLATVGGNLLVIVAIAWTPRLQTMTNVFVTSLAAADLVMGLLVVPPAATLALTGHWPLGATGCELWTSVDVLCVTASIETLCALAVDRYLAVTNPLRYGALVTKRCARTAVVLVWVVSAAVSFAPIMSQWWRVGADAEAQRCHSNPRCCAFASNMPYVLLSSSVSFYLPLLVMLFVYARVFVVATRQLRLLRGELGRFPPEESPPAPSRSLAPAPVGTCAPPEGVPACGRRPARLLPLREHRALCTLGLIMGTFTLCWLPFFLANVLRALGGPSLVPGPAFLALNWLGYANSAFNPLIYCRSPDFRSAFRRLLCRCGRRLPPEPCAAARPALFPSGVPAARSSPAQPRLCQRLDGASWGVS
row,Structure (SMILES),IC50
1,"CNS(=O)(=O)c1cccc(OC[C@@H](O)CNC2COC3(CCN(S(=O)(=O)c4cn(C)c(C)n4)CC3)C2)c1 (stereo partly drawn) [Compound 119, 3-((2S)-3-(8-(1,2-dimethyl-1H-imidazol-4-ylsulfonyl)-1-oxa-8-azaspiro[4.5]decan-3-ylamino)-2-hydroxypropoxy)-N-methylbenzenesulfonamide]",203 nM
2,"CNS(=O)(=O)c1cccc(OC[C@@H](O)CNC2COC3(CCN(S(=O)(=O)c4cc(C)ccc4OC)CC3)C2)c1 (stereo partly drawn) [Compound 176, 3-((2S)-2-hydroxy-3-(8-(2-methoxy-5-methylphenylsulfonyl)-1-oxa-8-azaspiro[4.5]decan-3-ylamino)propoxy)-N-methylbenzenesulfonamide]",23.3 nM
3,"CNS(=O)(=O)c1cccc(OC[C@@H](O)CN[C@H]2COC3(CCN(S(=O)(=O)c4cnc5c(c4C)N(C)CCO5)CC3)C2)c1 [Compound 467, 3-((S)-3-((R)-8-(1,8-dimethyl-2,3-dihydro-1H-pyrido[2,3-b][1,4]oxazin-7-ylsulfonyl)-1-oxa-8-azaspiro[4.5]decan-3-ylamino)-2-hydroxypropoxy)-N-methylbenzenesulfonamide]",33.4 nM
4,"CNS(=O)(=O)c1cccc(OC[C@@H](O)CNC2COC3(CCN(S(=O)(=O)c4cc(-c5ccc(CN)cc5)ccc4OC(F)(F)F)CC3)C2)c1 (stereo partly drawn) [Compound 411, 3-((2S)-3-(8-(4′-(aminomethyl)-4-(trifluoromethoxy)biphenyl-3-ylsulfonyl)-1-oxa-8-azaspiro[4.5]decan-3-ylamino)-2-hydroxypropoxy)-N-methylbenzenesulfonamide]",9.84 nM
5,"CNS(=O)(=O)c1cccc(OC[C@@H](O)CNC2COC3(CCN(S(=O)(=O)c4cccc(-c5nn[nH]n5)c4)CC3)C2)c1 (stereo partly drawn) [Compound 409, 3-((2S)-3-(8-(3-(2H-tetrazol-5-yl)phenylsulfonyl)-1-oxa-8-azaspiro[4.5]decan-3-ylamino)-2-hydroxypropoxy)-N-methylbenzenesulfonamide]",180 nM
6,"CNS(=O)(=O)c1cccc(OC[C@@H](O)CNC2COC3(CCN(S(=O)(=O)c4cccnc4N4CCOCC4)CC3)C2)c1 (stereo partly drawn) [Compound 442, 3-((2S)-2-hydroxy-3-(8-(2-morpholinopyridin-3-ylsulfonyl)-1-oxa-8-azaspiro[4.5]decan-3-ylamino)propoxy)-N-methylbenzenesulfonamide]",367 nM
7,"CNS(=O)(=O)c1cccc(OC[C@@H](O)CNC2COC3(CCN(S(=O)(=O)c4cc5ccccc5o4)CC3)C2)c1 (stereo partly drawn) [Compound 326, 3-((2S)-3-(8-(benzofuran-2-ylsulfonyl)-1-oxa-8-azaspiro[4.5]decan-3-ylamino)-2-hydroxypropoxy)-N-methylbenzenesulfonamide]",11.7 nM
8,"CNS(=O)(=O)c1cccc(OC[C@@H](O)CN[C@@H]2COC3(CCN(S(=O)(=O)c4ccc(Br)c(C)c4)CC3)C2)c1 [Compound 270, 3-((S)-3-((S)-8-(4-bromo-3-methylphenylsulfonyl)-1-oxa-8-azaspiro[4.5]decan-3-ylamino)-2-hydroxypropoxy)-N-methylbenzenesulfonamide]",16.7 nM
9,"CN1CCOc2ncc(S(=O)(=O)N3CCC4(CC3)C[C@@H](NC[C@H](O)COc3cccc(S(=O)(=O)NCCF)c3)CO4)cc21 [Compound 457, N-(2-fluoroethyl)-3-((S)-2-hydroxy-3-((R)-8-(1-methyl-2,3-dihydro-1H-pyrido[2,3-b][1,4]oxazin-7-ylsulfonyl)-1-oxa-8-azaspiro[4.5]decan-3-ylamino)propoxy)benzenesulfonamide]",29.6 nM
10,"CNS(=O)(=O)c1cccc(OC[C@@H](O)CNC2COC3(CCN(S(=O)(=O)c4cc(Br)ccc4C)CC3)C2)c1 (stereo partly drawn) [Compound 237, 3-((2S)-3-(8-(5-bromo-2-methylphenylsulfonyl)-1-oxa-8-azaspiro[4.5]decan-3-ylamino)-2-hydroxypropoxy)-N-methylbenzenesulfonamide]",42.8 nM
11,"CNS(=O)(=O)c1cccc(OC[C@@H](O)CN[C@H]2COC3(CCN(S(=O)(=O)c4cccc5nsnc45)CC3)C2)c1 [Compound 245, 3-((S)-3-((R)-8-(benzo[c][1,2,5]thiadiazol-4-ylsulfonyl)-1-oxa-8-azaspiro[4.5]decan-3-ylamino)-2-hydroxypropoxy)-N-methylbenzenesulfonamide]",15.5 nM
12,"CCOc1nc2c(cc1S(=O)(=O)N1CCC3(CC1)C[C@H](NC[C@H](O)COc1cccc(S(=O)(=O)NC)c1)CO3)N(C)CCO2 [Compound 450, 3-((S)-3-((S)-8-(6-ethoxy-1-methyl-2,3-dihydro-1H-pyrido[2,3-b][1,4]oxazin-7-ylsulfonyl)-1-oxa-8-azaspiro[4.5]decan-3-ylamino)-2-hydroxypropoxy)-N-methylbenzenesulfonamide]",28.2 nM

# The next lines start with the values.
row,IC50,Structure (SMILES)
1,33.2 nM,"CNS(=O)(=O)c1cccc(OC[C@@H](O)CN[C@H]2COC3(CCN(S(=O)(=O)c4cnc5c(c4)ncn5C)CC3)C2)c1 [Compound 475, 3-((S)-2-hydroxy-3-((R)-8-(3-methyl-3H-imidazo[4,5-b]pyridin-6-ylsulfonyl)-1-oxa-8-azaspiro[4.5]decan-3-ylamino)propoxy)-N-methylbenzenesulfonamide]"
2,204 nM,"CNS(=O)(=O)c1cccc(OC[C@@H](O)CN[C@H]2COC3(CCN(S(=O)(=O)c4cnc5c(c4)C(=O)NC5)CC3)C2)c1 [Compound 478, 3-((S)-2-hydroxy-3-((R)-8-(5-oxo-6,7-dihydro-5H-pyrrolo[3,4-b]pyridin-3-ylsulfonyl)-1-oxa-8-azaspiro[4.5]decan-3-ylamino)propoxy)-N-methylbenzenesulfonamide]"
3,43.9 nM,"CCn1cc(S(=O)(=O)N2CCC3(CC2)C[C@@H](NC[C@H](O)COc2cccc(S(=O)(=O)NC)c2)CO3)c(=O)c2cc(C)ccc21 [Compound 535, 3-((S)-3-((R)-8-(1-ethyl-6-methyl-4-oxo-1,4-dihydroquinolin-3-ylsulfonyl)-1-oxa-8-azaspiro[4.5]decan-3-ylamino)-2-hydroxypropoxy)-N-methylbenzenesulfonamide]"
4,33 nM,"CCn1cc(S(=O)(=O)N2CCC3(CC2)C[C@@H](NC[C@H](O)COc2cccc(S(=O)(=O)NC)c2)CO3)c(=O)c2ccccc21 [Compound 492, 3-((S)-3-((R)-8-(1-ethyl-4-oxo-1,4-dihydroquinolin-3-ylsulfonyl)-1-oxa-8-azaspiro[4.5]decan-3-ylamino)-2-hydroxypropoxy)-N-methylbenzenesulfonamide]"
5,62.4 nM,"CNS(=O)(=O)c1cccc(OC[C@@H](O)CN[C@H]2COC3(CCN(S(=O)(=O)c4cn(C)c5ccccc5c4=O)CC3)C2)c1 [Compound 494, 3-((S)-2-hydroxy-3-((R)-8-(1-methyl-4-oxo-1,4-dihydroquinolin-3-ylsulfonyl)-1-oxa-8-azaspiro[4.5]decan-3-ylamino)propoxy)-N-methylbenzenesulfonamide]"
6,24.4 nM,"CNS(=O)(=O)c1cccc(OC[C@@H](O)CN[C@H]2COC3(CCN(S(=O)(=O)c4cnc5ccc(C)cc5c4O)CC3)C2)c1 [Compound 533, 3-((S)-2-hydroxy-3-((R)-8-(4-hydroxy-6-methylquinolin-3-ylsulfonyl)-1-oxa-8-azaspiro[4.5]decan-3-ylamino)propoxy)-N-methylbenzenesulfonamide]"
7,1840 nM,"CNS(=O)(=O)c1cccc(OC[C@@H](O)CN[C@H]2COC3(CCN(c4ncc(C(F)(F)F)cn4)CC3)C2)c1 [Compound 583, 3-((S)-2-hydroxy-3-((R)-8-(5-(trifluoromethyl)pyrimidin-2-yl)-1-oxa-8-azaspiro[4.5]decan-3-ylamino)propoxy)-N-methylbenzenesulfonamide]"
